The experiment concerns production of TNF by monocytes activated with bacterial lipopolysaccharide (LPS). The experiment is described as follows: Lipopolysaccharide-activated monocyte TNF production assay. The class given is cell-based. To be noted: Homo sapiens, read-out: IC50 values in the monocyte assay (LPS induced TNF release). Summed up:
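Adherent human PBMC-derived monocytes (~70%) in DMEM/2% FCS were pre-incubated 60 min with nine two-fold compound dilutions, then stimulated with E. coli K532 LPS (added as 30 ng/ml solution) for 4 h at 37 °C. Supernatant TNF-α was measured by sandwich ELISA. IC50 was taken from a polynomial fit of TNF versus compound concentration.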
For `Nc1ncc2cc(-c3ccc(F)c(NC(=O)c4cc(C(F)(F)F)ccc4F)c3)ccc2n1` [Example 433, N-(5-(2-aminoquinazolin-6-yl)-2-fluorophenyl)-2-fluoro-5-(trifluoromethyl)benzamide], the IC50 was at most 25 µM.

On to `COc1ccc(NC(=O)c2ccc(C)c(-c3ccc4nc(N)ncc4c3)c2)cc1C(F)(F)F` [Example 119, 3-(2-amino-6-quinazolinyl)-4-methyl-N-(4-(methyloxy)-3-(trifluoromethyl)phenyl)benzamide], for which the IC50 is at most 25 µM.

Turning to `Nc1ncc2cc(-c3cc(NC(=O)c4cccc(Cl)c4Cl)ccc3Cl)ccc2n1` [Example 482, N-(3-(2-amino-6-quinazolinyl)-4-chlorophenyl)-2,3-dichlorobenzamide], the concentration for half-maximal inhibition (IC50) was at most 25 µM.

For `CCc1ccnc(NC(=O)c2ccc(C)c(-c3ccc4nc(N)ncc4c3)c2)c1` [Example 340, 3-(2-amino-6-quinazolinyl)-N-(4-ethyl-2-pyridinyl)-4-methylbenzamide], the IC50 was at most 25 µM.

Turning to `Cc1ccc(C(=O)Nc2cccc(C(F)(F)F)c2C)cc1-c1ccc2nc(NCCCN3CCOCC3)ncc2c1` [Example 32, 4-methyl-N-(2-methyl-3-(trifluoromethyl)phenyl)-3-(2-((3-(4-morpholinyl)propyl)amino)-6-quinazolinyl) benzamide], the IC50 was at most 25 µM.

Turning to `CC(=O)Nc1ccc(C(F)(F)F)cc1NC(=O)c1ccc(C)c(-c2ccc3nc(N)ncc3c2)c1` [Example 234, N-(2-(acetylamino)-5-(trifluoromethyl)phenyl)-3-(2-amino-6-quinazolinyl)-4-methylbenzamide], the IC50 was at most 25 µM.

As for `COc1cc(OC)cc(C(=O)Nc2cc(-c3ccc4nc(N)ncc4c3)ccc2F)c1` [Example 490, N-(5-(2-amino-6-quinazolinyl)-2-fluorophenyl)-3,5-bis(methyloxy)benzamide], the IC50 is at most 25 µM.

Take `Cc1ccc(NC(=O)c2ccc(C)c(-c3ccc4nc(N)ncc4c3)c2)cc1NC(=O)CN1CCOCC1` [Example 62, 3-(2-amino-6-quinazolinyl)-4-methyl-N-(4-methyl-3-((4-morpholinylacetyl)amino)phenyl) benzamide]: the IC50 was at most 25 µM.

Turning to `Nc1ncc2cc(-c3cccc(C(=O)Nc4cccc(C(F)(F)F)c4)c3)ccc2n1` [Example 52, 3-(2-amino-6-quinazolinyl)-N-(3-(trifluoromethyl)phenyl)benzamide], the half-maximal inhibitory concentration (IC50) was at most 25 µM.

Take `Cc1ccc(C(=O)Nc2cc(C(F)(F)F)ccc2N2CCN(C)CC2)cc1-c1ccc2nc(N)ncc2c1` [Example 74, 3-(2-amino-6-quinazolinyl)-4-methyl-N-(2-(4-methyl-1-piperazinyl)-5-(trifluoromethyl)phenyl)benzamide]: the 50% inhibitory concentration (IC50) was at most 25 µM.

Take `Nc1ncc2cc(-c3ccc(F)c(NC(=O)C4CC4)c3)ccc2n1` [Example 486, N-(5-(2-amino-6-quinazolinyl)-2-fluorophenyl)cyclopropanecarboxamide]: the half-inhibitory concentration (IC50) was at most 25 µM.

Take `CN1CCC(c2cc(NC(=O)c3csc(-c4ccc5nc(N)ncc5c4)c3)cc(C(F)(F)F)c2)CC1` [Example 58, 5-(2-amino-6-quinazolinyl)-N-(3-(1-methyl-4-piperidinyl)-5-(trifluoromethyl)phenyl)-3-thiophenecarboxamide]: the IC50 is at most 25 µM.

Turning to `Cc1ccc(NC(=O)c2cc(C(F)(F)F)ccc2C(F)(F)F)cc1-c1ccc2nc(N)ncc2c1` [Example 430, N-(3-(2-amino-6-quinazolinyl)-4-methylphenyl)-2,5-bis(trifluoromethyl)benzamide], the IC50 was at most 25 µM.

On to `Cc1ccc(F)c(NC(=O)c2ccc(C)c(-c3ccc4nc(N)ncc4c3)c2)c1` [Example 147, 3-(2-amino-6-quinazolinyl)-N-(2-fluoro-5-methylphenyl)-4-methylbenzamide], for which the IC50 is at most 25 µM.

As to `Cc1ccc(C(=O)Nc2cccc(C#N)c2)cc1-c1ccc2nc(N)ncc2c1` [Example 429, 3-(2-amino-6-quinazolinyl)-N-(3-cyanophenyl)-4-methylbenzamide], the IC50 was at most 25 µM.

Turning to `CNc1ncc2cc(-c3cc(C(=O)Nc4cccc(C(F)(F)F)c4)ccc3C)ccc2n1` [Example 18, 4-methyl-3-(2-(methylamino)-6-quinazolinyl)-N-(3-(trifluoromethyl)phenyl)benzamide], the IC50 was at most 25 µM.

As to `Nc1ncc2cc(-c3ccc(F)c(NC(=O)c4ccccc4)c3)ccc2n1` [Example 485, N-(5-(2-amino-6-quinazolinyl)-2-fluorophenyl)benzamide], the IC50 is at most 25 µM.

On to `COc1ccc(C(C)(C)C)cc1NC(=O)c1ccc(F)c(-c2ccc3nc(N)ncc3c2)c1` [Example 138, 3-(2-amino-6-quinazolinyl)-N-(5-(1,1-dimethylethyl)-2-(methyloxy)phenyl)-4-fluorobenzamide], for which the IC50 was at most 25 µM.

Turning to `Nc1ncc2cc(-c3cc(C(=O)Nc4cccc(C(F)(F)F)c4F)ccc3F)ccc2n1` [Example 136, 3-(2-amino-6-quinazolinyl)-4-fluoro-N-(2-fluoro-3-(trifluoromethyl)phenyl)benzamide], the IC50 was at most 25 µM.

With `Cc1ccc(C(=O)Nc2ccc(C(C)(C)C)c(NC(=O)CN(C)C)c2)cc1-c1ccc2nc(N)ncc2c1` [Example 227, 3-(2-amino-6-quinazolinyl)-N-(4-(1,1-dimethylethyl)-3-((N,N-dimethylglycyl)amino)phenyl)-4-methylbenzamide], the IC50 is at most 25 µM.

Consider `Cc1ccc(C(=O)Nc2c(N(C)CCCN(C)C)ccc(C(F)(F)F)c2C)cc1-c1ccc2nc(N)ncc2c1` [Example 117, 3-(2-amino-6-quinazolinyl)-N-(6-((3-(dimethylamino)propyl)(methyl)amino)-2-methyl-3-(trifluoromethyl)phenyl)-4-methylbenzamide], for which the 50% inhibitory concentration (IC50) was at most 25 µM.

With `CCN1CCC(CNc2ncc3cc(-c4cc(C(=O)Nc5cccc(C(F)(F)F)c5C)ccc4C)ccc3n2)CC1` [Example 35, 3-(2-(((1-ethyl-4-piperidinyl)methyl)amino)-6-quinazolinyl)-4-methyl-N-(2-methyl-3-(trifluoromethyl)phenyl)benzamide], the IC50 was at most 25 µM.

Take `Cc1c(NC(=O)c2cc(C(F)(F)F)cc(C(F)(F)F)c2)cccc1-c1ccc2nc(N)ncc2c1` [Example 220, N-(3-(2-amino-6-quinazolinyl)-2-methylphenyl)-3,5-bis(trifluoromethyl)benzamide]: the half-maximal inhibitory concentration (IC50) was at most 25 µM.

In the case of `Cc1c(NC(=O)c2cc(C(F)(F)F)ccc2F)cccc1-c1ccc2nc(N)ncc2c1` [Example 222, N-(3-(2-amino-6-quinazolinyl)-2-methylphenyl)-2-fluoro-5-(trifluoromethyl) benzamide], the IC50 was at most 25 µM.

For the compound `CC(C)c1cccc(C(=O)Nc2cc(-c3ccc4nc(N)ncc4c3)ccc2F)c1` [Example 491, N-(5-(2-amino-6-quinazolinyl)-2-fluorophenyl)-3-(1-methylethyl)benzamide], the IC50 is at most 25 µM.

Regarding `O=C(Nc1cccc(C(F)(F)F)c1)c1cccc(-c2ccc3ccnc(O)c3c2)c1` [Example 51, 3-(1-hydroxy-7-isoquinolinyl)-N-(3-(trifluoromethyl)phenyl)benzamide], the IC50 was at most 25 µM.

`Cc1ccc(NC(=O)c2ccccc2)cc1-c1ccc2nc(NC(=O)c3ccccc3)ncc2c1` [Example 483, N-(6-(2-methyl-5-((phenylcarbonyl)amino)phenyl)-2-quinazolinyl)benzamide]: the IC50 is at most 25 µM.

`Cc1ccc(C(=O)OCc2ccccc2)cc1-c1ccc2nc(N)ncc2c1` [Example 160, phenylmethyl 3-(2-amino-6-quinazolinyl)-4-methylbenzoate]: the IC50 is at most 25 µM.

With `Cc1ccc(C(=O)Nc2cccc(C(F)(F)F)c2F)cc1-c1ccc2nc(NCCCN3CCOCC3)ncc2c1` [Example 23, N-(2-fluoro-3-(trifluoromethyl)phenyl)-4-methyl-3-(2-((3-(4-morpholinyl)propyl)amino)-6-quinazolinyl) benzamide], the IC50 was at most 25 µM.

On to `Nc1ncc2cc(-c3cc(C(=O)Nc4cccc(OC(F)(F)F)c4)ccc3Cl)ccc2n1` [Example 142, 3-(2-amino-6-quinazolinyl)-4-chloro-N-(3-((trifluoromethyl)oxy)phenyl)benzamide], for which the IC50 is at most 25 µM.

As for `Cc1ccc(C(=O)Nc2ccc(I)cn2)cc1-c1ccc2nc(N)ncc2c1` [Example 353, 3-(2-amino-6-quinazolinyl)-N-(5-iodo-2-pyridinyl)-4-methylbenzamide], the 50% inhibitory concentration (IC50) is at most 25 µM.

On to `CN1CCN(c2ccc(C(F)(F)F)cc2NC(=O)c2cc(-c3ccc4nc(N)ncc4c3)ccc2F)CC1` [Example 421, 5-(2-amino-6-quinazolinyl)-2-fluoro-N-(2-(4-methyl-1-piperazinyl)-5-(trifluoromethyl)phenyl)benzamide], for which the IC50 was at most 25 µM.

As to `Cc1ccc(C(=O)Nc2ncc(Br)s2)cc1-c1ccc2nc(N)ncc2c1` [Example 356, 3-(2-amino-6-quinazolinyl)-N-(5-bromo-1,3-thiazol-2-yl)-4-methylbenzamide], the concentration for half-maximal inhibition (IC50) is at most 25 µM.

Take `Cc1ccc(C(=O)Nc2cccc(C(F)(F)F)c2C)cc1-c1ccc2nc(NCCN3CCOCC3)ncc2c1` [Example 28, 4-methyl-N-(2-methyl-3-(trifluoromethyl)phenyl)-3-(2-((2-(4-morpholinyl)ethyl)amino)-6-quinazolinyl) benzamide]: the half-maximal inhibitory concentration (IC50) is at most 25 µM.

`Cc1ccc(C(=O)Nc2cc(C(C)(C)C)ccc2NC(=O)CN2CCOCC2)cc1-c1ccc2nc(N)ncc2c1` [Example 8]: the IC50 is at most 25 µM.

In the case of `Cc1ccc(C(=O)Nc2cccc(C(F)(F)F)c2F)cc1-c1ccc2nc(Nc3ccc(OCCCN4CCCCC4)cc3)ncc2c1` [Example 31, N-(2-fluoro-3-(trifluoromethyl)phenyl)-4-methyl-3-(2-((4-((3-(1-piperidinyl)propyl)oxy)phenyl)amino)-6-quinazotinyl) benzamide], the IC50 was at most 25 µM.
